“Also recorded” adds a separate entry of the source.
Columns and labels:
[1] = target: T1, TRPV1 (Rattus norvegicus, UniProt O35433); assay: Whole-cell patch-clamp of TRPV1-expressing HEK293 cells; format: cell-based; design: expressed in transfected cells; host or cells: HEK 293F (Invitrogen), co-transfected with GFP cDNA; details: for Shifts in TRPV1 V1/2 and increases in maximal conductance by alcohols: decanol 0.6 mM, dodecanol 0.1 mM
Method: (§1) Electrophysiology. […] Whole-cell and single-channel patch-clamp recordings were performed by using an EPC8 amplifier (HEKA Electronics). For whole-cell and excised patch recordings the bath solution contained 140 mMNaCl, 4 mMKCl, 1 mMMgCl2, 1.2 mMCaCl2, 10 mMHepes, 10 mM glucose, pH 7.3. For cell-attached experiments, NaCl was replaced with KCl in the bath solution. […] For neuronal recording NaCl was replaced with K-gluconate (plus 1 mMATP, 0.2 mM GTP). Solutions were applied via a gravity-fed system. […] Voltage-dependent properties were measured as described in Matt and Ahern, J. Physiol. […] The baseline currents under control conditions were subtracted. For cell-attached experiments, peak amplitudes were measured from all-points histograms, and open probability was measured as NPo>750 ms. Defolliculated Xenopus laevis oocytes were injected with ≈10 ng of hTRPA1 (gift of Ardem Patapoutian, The Scripps Research Institute, La Jolla, Calif.).
HEK cell and sensory neuron electrophysiology. […] Cell cultures were maintained at 37° C. with 5% CO2. Cells were transfected with rat TRPV 1 (gift of David Julius), and GFP cDNA using Lipofectamine™ Transfection Reagent (Invitrogen) and used 24-48 h after transfection. Nodose ganglia were obtained from adult mice (C57B16/J and TRPV1-null), cut, digested with collagenase, and cultured in Neurobasal +2% B-27 medium (Invitrogen), 0.1% L-glutamine and 1% penicillin/streptomycin on poly-D lysine-coated glass coverslips at 37° C. in 5% CO2. Neurons were used within 24-36 hr of culture. Whole-cell and single-channel patch clamp recordings were performed using an EPC8 amplifier (HEKA). The current signal was low-pass filtered at 1-3 kHz and sampled at 4 kHz. Currents were further filtered for display purposes. For whole-cell and excised patch recordings the bath solution contained (in mM): 140 NaCl, 4 KCl, 1 MgCl2, 1 EGTA, 10 HEPES, 10 glucose pH 7.3 (290 mOsm). The pipette solution contained (in mM): 140 CsC1, 10 NaCl, 10 HEPES, 5 EGTA, 2 Mg ATP and 0.03 GTP, pH 7.3. The peak amplitudes measured either during the prepulse or the tail current (within 1 ms) were plotted as a function of the test potential and normalized to the maximal current obtained from the following Boltzmann function: […]

[2] = target: T2, TRPM8 (Rattus norvegicus, UniProt Q8R455); assay: Whole-cell patch-clamp of TRPM8-expressing HEK293 cells; format: cell-based
T2 construct: expressed in transfected cells; host or cells: HEK 293F
Method: as §1

[3] = target: T3, TRPA1 (Rattus norvegicus, UniProt Q6RI86); assay: Whole-cell patch-clamp of TRPA1-expressing HEK293 cells; format: cell-based; details: for Activation of TRPA1 currents by VGAs: 0.9 mM, voltage-clamped HEK293 cells
T3 construct: expressed in transfected cells; host or cells: HEK 293F
Method: as §1
Volatile General Anesthetics and Chemicals. Saturated stock solutions of volatile GAs were prepared in gas-tight bottles by dissolving excess anesthetic agents in bath solutions overnight. From these stock solutions fresh dilutions were made up every 40-60 min. Concentrations of GAs in the bath solutions were verified by using a modified head-space gas chromatography method. […] Alcohols with <6 carbons were dissolved directly into extracellular solution, and alcohols containing 6 carbons or more were dissolved in DMSO and then diluted into extracellular solutions that were sonicated for 20 min. All other drugs were prepared as stock solutions in DMSO or ethanol and diluted into physiological solution before experiments.

[4] = target: T4, TRPV1 (Mus musculus, UniProt Q704Y3); assay: Patch-clamp of capsaicin-sensitive sensory neurons (nodose ganglia); format: cell-based
T4 construct: endogenous in cells; host or cells: primary nodose ganglion neurons of adult C57Bl6/J mice
Method: HEK cell and sensory neuron electrophysiology. HEK 293F cells (Invitrogen) were cultured in DMEM supplemented with 1% non-essential amino acids and 10% fetal calf serum. Cell cultures were maintained at 37° C. with 5% CO2. Cells were transfected with rat TRPV 1 (gift of David Julius), and GFP cDNA using Lipofectamine™ Transfection Reagent (Invitrogen) and used 24-48 h after transfection. Nodose ganglia were obtained from adult mice (C57B16/J and TRPV1-null), cut, digested with collagenase, and cultured in Neurobasal +2% B-27 medium (Invitrogen), 0.1% L-glutamine and 1% penicillin/streptomycin on poly-D lysine-coated glass coverslips at 37° C. in 5% CO2. Neurons were used within 24-36 hr of culture. Whole-cell and single-channel patch clamp recordings were performed using an EPC8 amplifier (HEKA). The current signal was low-pass filtered at 1-3 kHz and sampled at 4 kHz. Currents were further filtered for display purposes. For whole-cell and excised patch recordings the bath solution contained (in mM): 140 NaCl, 4 KCl, 1 MgCl2, 1 EGTA, 10 HEPES, 10 glucose pH 7.3 (290 mOsm). The pipette solution contained (in mM): 140 CsC1, 10 NaCl, 10 HEPES, 5 EGTA, 2 Mg ATP and 0.03 GTP, pH 7.3. The peak amplitudes measured either during the prepulse or the tail current (within 1 ms) were plotted as a function of the test potential and normalized to the maximal current obtained from the following Boltzmann function: […]

[5] = rat at 37° C.; cited from earlier work
[6] = target: T1, TRPV1; assay: Voltage-clamp of TRPV1-expressing Xenopus oocytes (capsaicin, protons, heat); format: cell-based; details: VGAs 0.6 mM, pH 5.5
Method: Oocyte electrophysiology. […] Oocytes were placed in a Perspex chamber and continuously superfused (5 ml min-1) with Ca2+-free solution containing (in mM): 100 NaCl, 2.5 KCl, 5 HEPES, 1 MgCl2 and titrated to pH 7.3 with ˜5 mM NaOH. For solutions <pH 6.0, HEPES was replaced with either 5 mM MES or 5 mM sodium citrate. Oocytes were routinely voltage-clamped at −60 mV at 22-23° C. For heat activation, bath temperature was raised from ˜22-50° C. over ˜100 s using an in-line solution heater (Warner Instruments). The temperature was continuously monitored with a probe placed within 2 mm of the oocyte. The temperature-activation threshold was defined as a 20% increase in current above baseline.
Volatile general anesthetics. Saturated stock solutions of volatile general anesthetics (VGAs) were prepared in gas-tight bottles by dissolving excess anesthetic agents in bath solutions and stirring vigorously overnight. From these stock solutions fresh dilutions were made up every 40-60 minutes. Concentrations of volatile anesthetics in the bath solutions were verified using a modified head-space gas chromatography method. The gas chromatograph (Carlo Erba, Milan, Italy) was equipped with a flame ionization detector (FID) and mass spectrometer. The carrier gas was hydrogen (60 kPa column head pressure) and the fused silica capillary column, coated with polysiloxane SE-30, was 25 m×0.25 mm. Injector temperature was 250° C., FID temperature was 300° C. and the oven was maintained at 90° C. Standards were prepared from a mixture of halothane, isoflurane, and sevoflurane dissolved in acetonitrile with enflurane as an internal standard.

[7] = system: DRG neurons from TRPA1-null mice; assay: Ca2+ imaging in DRG neurons from TRPA1-null mice; format: cell-based, mouse; details: capsaicin 100 nM
Method: Ca^2+ Imaging. Neurons were loaded with 1 μM Fluo4-AM (Molecular Probes) for 20 min and washed for a further 10-20 min before recording. The dye was excited at 488±15 nm. Emitted fluorescence was filtered with a 535±25 nm bandpass filter, captured by a SPOT RT digital camera (Diagnostic Instruments) and read into a computer. Analysis was performed offline by using Simple PCI software (Compix Inc.).

[8] = system: mice; assay: Flexor reflex response (EMG of semitendinosus muscle) after femoral artery injection; format: in vivo, mouse; details: propofol 500 μM, capsaicin 50 μM
Method: (§2) Behavioral Experiments and Neurogenic Inflammation. Animal experiments were performed according to National Institutes of Health and institutional guidelines. […] Nocifensive behavior (nose wiping in sawdust bedding) was recorded for 2 min with a video camera and the duration was subsequently measured by a blinded observer. […] Electromyographic (EMG) activity was recorded via platinum electrodes from the semitendinosus muscle in mice anesthetized with urethane (1.3 g/kg) as described in Ando and Watanabe, Br J. Anaesth. […] The EMG signal was recorded by using a low-pass cutoff frequency of 200 Hz and integrated offline by using a 100-ms time window. […] Ear thickness was recorded by using an engineer's micrometer (Mitutoyo Corp.) before mustard-oil application and thereafter every 15 min for 60 min of anesthesia and 60 min of recovery.

[9] = system: mice; assay: Nocifensive behavior after topical application to the nasal epithelium; format: in vivo, mouse; details: capsaicin 10 mM
Method: as §2

[10] = target: T5, hTRPA1 (Homo sapiens, UniProt O75762); assay: AITC-evoked currents in TRPA1-expressing Xenopus oocytes; format: cell-based; details: VGAs 0.5-0.65 mM, AITC 10 μM
T5 construct: expressed in transfected cells; host or cells: Xenopus laevis oocytes (injected)
Method: (§3) Electrophysiology. HEK 293F cells were transfected with rat TRPV1, TRPA1, and TRPM8 (gift of David Julius, University of California, San Francisco). Dorsal root ganglia were cultured from adult mice (C57B16/J wild type and TRPV1-null, and mixed B6/129 background TRPA1-null) in Neurobasal +2% B-27 medium (Invitrogen), 0.1% L-glutamine and 1% penicillin/streptomycin. Whole-cell and single-channel patch-clamp recordings were performed by using an EPC8 amplifier (HEKA Electronics). For whole-cell and excised patch recordings the bath solution contained 140 mMNaCl, 4 mMKCl, 1 mMMgCl2, 1.2 mMCaCl2, 10 mMHepes, 10 mM glucose, pH 7.3. For cell-attached experiments, NaCl was replaced with KCl in the bath solution. The pipette solution contained 140 mM NaCl or KCl, 10 mM Hepes, 5 mM EGTA, pH 7.3. For neuronal recording NaCl was replaced with K-gluconate (plus 1 mMATP, 0.2 mM GTP). Solutions were applied via a gravity-fed system. Separate outlets were used to apply capsaicin and AITC solutions to avoid contamination. Voltage-dependent properties were measured as described in Matt and Ahern, J. Physiol. 585:469-482 (2007). Current-voltage measurements comprised a 200-ms ramp from −150 mV to +200 mV. The baseline currents under control conditions were subtracted. For cell-attached experiments, peak amplitudes were measured from all-points histograms, and open probability was measured as NPo>750 ms. Defolliculated Xenopus laevis oocytes were injected with ≈10 ng of hTRPA1 (gift of Ardem Patapoutian, The Scripps Research Institute, La Jolla, Calif.). Oocytes were placed in a Perspex chamber and continuously superfused (5 ml min^−1) with Ca^2+-free solution containing 100 mM NaCl, 2.5 mM KCl, 5 mM Hepes, 1 mM MgC12 and titrated to pH 7.3 with ˜5 mM NaOH.

[11] = system: AITC-sensitive DRG neurons; assay: Voltage- and current-clamp of DRG sensory neurons; format: cell-based, mouse; details: camphor 0.5 mM, propofol 100 μM
Method: as §3

[12] = isoflurane 0.9 mM, octanol 1 mM

T4 sequence (Q704Y3 whole entry): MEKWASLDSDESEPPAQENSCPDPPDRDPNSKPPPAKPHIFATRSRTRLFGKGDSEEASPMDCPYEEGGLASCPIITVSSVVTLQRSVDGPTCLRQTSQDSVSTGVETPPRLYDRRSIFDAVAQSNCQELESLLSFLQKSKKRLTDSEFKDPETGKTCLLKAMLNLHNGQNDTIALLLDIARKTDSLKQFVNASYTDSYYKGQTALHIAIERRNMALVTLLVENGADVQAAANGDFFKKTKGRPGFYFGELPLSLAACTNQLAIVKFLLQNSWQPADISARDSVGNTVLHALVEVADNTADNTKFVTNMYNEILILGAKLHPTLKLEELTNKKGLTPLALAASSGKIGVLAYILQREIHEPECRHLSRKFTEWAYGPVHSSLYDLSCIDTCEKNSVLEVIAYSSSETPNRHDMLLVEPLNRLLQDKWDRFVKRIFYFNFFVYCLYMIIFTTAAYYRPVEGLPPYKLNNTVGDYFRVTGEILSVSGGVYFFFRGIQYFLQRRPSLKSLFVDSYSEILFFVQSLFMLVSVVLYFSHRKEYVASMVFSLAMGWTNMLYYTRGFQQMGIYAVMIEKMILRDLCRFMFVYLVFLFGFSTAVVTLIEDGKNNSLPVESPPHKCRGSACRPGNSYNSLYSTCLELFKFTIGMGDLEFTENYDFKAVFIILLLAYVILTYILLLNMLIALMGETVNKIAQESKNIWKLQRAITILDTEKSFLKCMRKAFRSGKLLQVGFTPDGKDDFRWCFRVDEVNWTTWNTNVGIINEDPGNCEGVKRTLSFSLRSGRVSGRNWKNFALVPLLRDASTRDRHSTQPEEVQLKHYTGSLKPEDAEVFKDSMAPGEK
T1 sequence (O35433 whole entry): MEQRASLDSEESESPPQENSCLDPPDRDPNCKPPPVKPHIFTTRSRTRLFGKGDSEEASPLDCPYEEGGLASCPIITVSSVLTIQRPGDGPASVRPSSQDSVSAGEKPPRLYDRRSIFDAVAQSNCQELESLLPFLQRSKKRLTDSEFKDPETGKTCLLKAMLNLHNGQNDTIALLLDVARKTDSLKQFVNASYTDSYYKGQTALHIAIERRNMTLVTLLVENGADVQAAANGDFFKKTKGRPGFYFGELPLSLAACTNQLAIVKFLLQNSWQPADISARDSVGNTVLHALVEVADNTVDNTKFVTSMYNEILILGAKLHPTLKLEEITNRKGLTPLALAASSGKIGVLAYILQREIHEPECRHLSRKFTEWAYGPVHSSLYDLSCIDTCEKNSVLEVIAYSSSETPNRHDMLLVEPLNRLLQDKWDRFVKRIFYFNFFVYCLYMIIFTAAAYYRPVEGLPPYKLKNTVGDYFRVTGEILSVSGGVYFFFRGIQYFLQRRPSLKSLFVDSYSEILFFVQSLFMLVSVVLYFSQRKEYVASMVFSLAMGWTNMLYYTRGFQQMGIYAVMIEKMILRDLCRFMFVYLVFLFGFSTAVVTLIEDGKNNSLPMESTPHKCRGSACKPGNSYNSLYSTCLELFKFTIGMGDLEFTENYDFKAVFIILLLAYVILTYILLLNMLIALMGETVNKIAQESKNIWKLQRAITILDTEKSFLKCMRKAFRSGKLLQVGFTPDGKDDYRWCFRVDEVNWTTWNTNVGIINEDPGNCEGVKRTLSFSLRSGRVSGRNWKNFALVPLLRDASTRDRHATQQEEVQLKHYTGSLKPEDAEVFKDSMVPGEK
T3 sequence (Q6RI86 whole entry): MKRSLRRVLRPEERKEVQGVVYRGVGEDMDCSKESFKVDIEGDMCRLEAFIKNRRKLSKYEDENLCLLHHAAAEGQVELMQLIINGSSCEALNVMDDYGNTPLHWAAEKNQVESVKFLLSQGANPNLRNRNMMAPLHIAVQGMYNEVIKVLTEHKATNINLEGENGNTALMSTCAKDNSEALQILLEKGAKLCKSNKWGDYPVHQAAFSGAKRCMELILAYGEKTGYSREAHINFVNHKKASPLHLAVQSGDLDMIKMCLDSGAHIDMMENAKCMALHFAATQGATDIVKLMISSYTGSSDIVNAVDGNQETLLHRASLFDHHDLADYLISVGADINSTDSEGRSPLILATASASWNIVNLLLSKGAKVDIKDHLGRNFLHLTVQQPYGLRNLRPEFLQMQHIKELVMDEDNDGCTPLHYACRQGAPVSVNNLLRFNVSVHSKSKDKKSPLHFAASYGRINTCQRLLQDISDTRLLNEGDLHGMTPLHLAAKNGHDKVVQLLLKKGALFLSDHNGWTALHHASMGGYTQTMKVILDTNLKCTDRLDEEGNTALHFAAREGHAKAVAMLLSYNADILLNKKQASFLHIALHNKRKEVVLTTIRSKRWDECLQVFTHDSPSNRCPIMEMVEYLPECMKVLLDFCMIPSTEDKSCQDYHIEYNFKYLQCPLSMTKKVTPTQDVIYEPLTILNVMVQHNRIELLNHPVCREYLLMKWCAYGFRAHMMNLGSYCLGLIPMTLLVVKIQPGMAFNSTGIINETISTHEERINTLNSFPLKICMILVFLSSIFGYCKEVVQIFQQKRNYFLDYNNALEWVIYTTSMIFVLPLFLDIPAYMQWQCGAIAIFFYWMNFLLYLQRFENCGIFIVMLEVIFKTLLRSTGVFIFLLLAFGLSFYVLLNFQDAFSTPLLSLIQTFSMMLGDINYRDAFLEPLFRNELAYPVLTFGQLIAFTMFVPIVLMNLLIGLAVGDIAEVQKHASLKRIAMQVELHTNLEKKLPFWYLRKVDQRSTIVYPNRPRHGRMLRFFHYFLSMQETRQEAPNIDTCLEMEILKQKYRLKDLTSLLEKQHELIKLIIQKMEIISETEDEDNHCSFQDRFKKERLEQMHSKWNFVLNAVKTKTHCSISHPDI
T2 sequence (Q8R455 whole entry): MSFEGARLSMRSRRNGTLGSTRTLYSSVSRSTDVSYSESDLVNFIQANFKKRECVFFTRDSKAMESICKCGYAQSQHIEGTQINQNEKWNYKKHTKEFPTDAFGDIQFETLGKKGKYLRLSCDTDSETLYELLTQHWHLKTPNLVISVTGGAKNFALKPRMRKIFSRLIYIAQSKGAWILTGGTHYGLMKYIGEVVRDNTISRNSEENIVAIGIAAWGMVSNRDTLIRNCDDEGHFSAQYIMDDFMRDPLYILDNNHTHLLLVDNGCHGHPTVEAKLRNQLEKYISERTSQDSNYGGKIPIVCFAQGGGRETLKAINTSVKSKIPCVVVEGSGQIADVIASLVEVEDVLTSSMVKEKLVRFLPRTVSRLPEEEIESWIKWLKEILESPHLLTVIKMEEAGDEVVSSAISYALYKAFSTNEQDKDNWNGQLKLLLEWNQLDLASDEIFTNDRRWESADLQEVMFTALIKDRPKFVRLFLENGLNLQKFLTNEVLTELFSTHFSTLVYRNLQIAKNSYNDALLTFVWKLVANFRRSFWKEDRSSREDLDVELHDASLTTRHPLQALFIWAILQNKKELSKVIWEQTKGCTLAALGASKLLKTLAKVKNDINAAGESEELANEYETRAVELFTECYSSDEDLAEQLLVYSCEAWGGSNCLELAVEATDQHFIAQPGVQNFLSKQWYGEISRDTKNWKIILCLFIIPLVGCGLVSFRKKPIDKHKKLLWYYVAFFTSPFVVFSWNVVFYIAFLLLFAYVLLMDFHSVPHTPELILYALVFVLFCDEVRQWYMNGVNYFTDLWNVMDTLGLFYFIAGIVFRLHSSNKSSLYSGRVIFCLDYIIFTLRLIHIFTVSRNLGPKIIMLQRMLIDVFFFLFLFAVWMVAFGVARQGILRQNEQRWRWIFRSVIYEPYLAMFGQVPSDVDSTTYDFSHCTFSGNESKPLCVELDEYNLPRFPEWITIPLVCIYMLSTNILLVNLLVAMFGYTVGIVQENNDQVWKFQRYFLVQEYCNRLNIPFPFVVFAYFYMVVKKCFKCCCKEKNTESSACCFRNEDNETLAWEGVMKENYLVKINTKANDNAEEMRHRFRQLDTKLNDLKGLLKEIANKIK
T5 sequence (O75762 whole entry): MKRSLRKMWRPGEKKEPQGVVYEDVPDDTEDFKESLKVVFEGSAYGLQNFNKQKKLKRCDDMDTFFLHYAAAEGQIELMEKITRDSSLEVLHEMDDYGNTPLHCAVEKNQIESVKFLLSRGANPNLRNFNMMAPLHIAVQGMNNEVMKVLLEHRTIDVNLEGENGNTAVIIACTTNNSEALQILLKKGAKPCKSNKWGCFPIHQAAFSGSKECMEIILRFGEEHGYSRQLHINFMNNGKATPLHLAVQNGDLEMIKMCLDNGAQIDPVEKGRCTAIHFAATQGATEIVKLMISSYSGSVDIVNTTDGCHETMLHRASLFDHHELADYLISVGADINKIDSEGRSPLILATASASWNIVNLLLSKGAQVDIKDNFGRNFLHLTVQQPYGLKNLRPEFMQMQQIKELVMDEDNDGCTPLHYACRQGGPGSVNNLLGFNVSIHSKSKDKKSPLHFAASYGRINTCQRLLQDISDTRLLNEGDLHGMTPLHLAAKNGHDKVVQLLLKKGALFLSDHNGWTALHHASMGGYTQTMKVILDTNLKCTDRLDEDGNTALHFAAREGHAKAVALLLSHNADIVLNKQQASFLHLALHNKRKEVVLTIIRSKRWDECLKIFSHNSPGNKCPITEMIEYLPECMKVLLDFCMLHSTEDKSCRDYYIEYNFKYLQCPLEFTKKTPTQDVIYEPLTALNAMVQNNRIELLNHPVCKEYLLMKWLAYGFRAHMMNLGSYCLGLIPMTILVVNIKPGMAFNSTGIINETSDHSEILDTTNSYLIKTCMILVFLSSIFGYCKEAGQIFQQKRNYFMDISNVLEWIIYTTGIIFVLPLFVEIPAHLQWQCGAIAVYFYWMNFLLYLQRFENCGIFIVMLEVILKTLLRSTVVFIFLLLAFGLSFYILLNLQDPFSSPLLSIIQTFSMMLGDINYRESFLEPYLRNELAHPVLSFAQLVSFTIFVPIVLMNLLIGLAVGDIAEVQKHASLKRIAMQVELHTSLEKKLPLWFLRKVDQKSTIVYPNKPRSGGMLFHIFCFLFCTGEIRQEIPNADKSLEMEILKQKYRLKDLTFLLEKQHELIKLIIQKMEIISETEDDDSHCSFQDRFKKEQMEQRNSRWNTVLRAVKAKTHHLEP

With `CCCCCCCCO` [octanol] the “Effects at TRPV1 at holding potential −50 mV” value [1, 12] was “negligible effects”, the “Shifts in TRPV1 V1/2 and increases in maximal conductance by alcohols” value (from here on “Shifts in TRPV1 V1/2 and increases”) ([1]; octanol 1 mM) was “reached a maximum” and the “Response relative to 10 μM capsaicin” value ([1]; octanol 1.8 mM, at 200 mV) was ~40%. The “Effects at TRPM8 at holding potential −50 mV” value [2, 12] was “negligible effects”, the “Activation of TRPA1 at holding potential −50 mV” value [3, 12] was “selectively activated” and the “Response relative to 1 mM AITC” value ([3]; octanol 1.8 mM, at +200 mV) was < 50%.
In the case of `Oc1cc2c(cc1O)CN(C(=S)NCCc1ccc(Cl)cc1)CCC2` [capsazepine], the “Inhibition of responses to isoflurane after BK” value ([4]; capsazepine 1 μM, 3 of 3 cells) is reported as “completely inhibited”.
For `FC(F)OC(F)(F)C(F)Cl` (centres unmarked) [enflurane], the “1 MAC equivalent aqueous concentration (published conversion factor)” value (“1 MAC equivalent aqueous concentration” for short) [5] is given as 0.64 mM and the “Enhancement of proton-evoked currents compared with isoflurane and sevoflurane” value [6] is given as “significantly more”.
In the case of `COc1cc(CNC(=O)CCCC/C=C/C(C)C)ccc1O` [capsaicin], the “TRPA1-deficient cells sensitive to capsaicin” value [7] is reported as 43%, the “Flexor reflex muscle activity in TRPA1+/− mice” value [8] is reported as “robust responses” and the “Flexor reflex muscle activity in TRPA1-null mice” value [8] is reported as “robust responses”. For the same compound, the “Nocifensive behavior in TRPV1-null mice” value [9] was “but not in TRPV 1-null mice” and the “Nocifensive behavior in wild-type mice” value [9] was “produced similar behavior”.
In the case of `CC(C)(C)c1ccc(/C=C/C(=O)Nc2ccc3c(c2)OCCO3)cc1` [AMG9810], the “Inhibition of isoflurane-evoked TRPV1 responses after PDBu” value [4] is reported as “inhibits; also recorded: completely inhibited”.
For `FC(F)(F)C(Cl)Br` (centres unmarked) [halothane], the “Currents evoked after PDBu treatment in TRPV1-expressing HEK293 cells” value ([1]; VGA 0.9 mM, PDBu 500 nM, room temperature (25° C.)) is listed as “activates currents”, the “1 MAC equivalent aqueous concentration” value [5] is listed as 0.27 mM and the “Activation of TRPA1 currents by VGAs” value [3] is listed as “without effect”.
For `CCCCCCCCCCCCO` [dodecanol], the “Shifts in TRPV1 V1/2 and increases” value ([1]; octanol 1 mM) was “without effect”.
In the case of `CCOC(=O)c1cncn1[C@H](C)c1ccccc1` [etomidate], the “Change in V1/2 of TRPM8 (ΔV1/2, increase)” value ([2]; 100 μM, n=5-6) is reported as 25.5 mV.
In the case of `FCOC(C(F)(F)F)C(F)(F)F` [sevoflurane], the “1 MAC equivalent aqueous concentration” value [5] is given as 0.35 mM, the “Effect on AITC-evoked currents” value [10] is given as “did not” and the “Activation of TRPA1 currents by VGAs” value [3] is given as “without effect”.
For `CC12CCC(CC1=O)C2(C)C` (centres unmarked) [camphor], the “Inhibition of propofol-evoked inward currents” value [11] was “blocked; also recorded: sensitive”.
With `CCCCCCCCCCO` [decanol] the “Shifts in TRPV1 V1/2 and increases” value ([1]; octanol 1 mM) was “smaller response”.
In the case of `COC(F)(F)C(Cl)Cl` [methoxyflurane], the “Effect on AITC-evoked currents” value [10] is reported as “did not”.

— patent publication US20110104301A1, “METHODS OF REDUCING PAIN AND INFLAMMATION” (Georgetown University, A Congressionally Chartered …, priority 2008, published 2011)
